Experimental data from the NIST ThermoML archive (doi:10.1016/j.jct.2012.06.012).

Assay: xn = mol fraction of the nth substance listed
Conditions: Liquid, Vibrating tube method

CCCCCCCCCC [decane] + CCO
Conditions | mass density [kg/m3]
313.09 K, 11000 kPa, x2 = 0.0937 | 723.62
313.09 K, 12000 kPa, x2 = 0.0937 | 724.43
313.09 K, 13000 kPa, x2 = 0.0937 | 725.25
313.09 K, 14000 kPa, x2 = 0.0937 | 726.06
313.09 K, 15000 kPa, x2 = 0.0937 | 726.84
313.09 K, 16000 kPa, x2 = 0.0937 | 727.61
313.09 K, 17000 kPa, x2 = 0.0937 | 728.37
313.09 K, 18000 kPa, x2 = 0.0937 | 729.11
313.09 K, 19000 kPa, x2 = 0.0937 | 729.84
313.09 K, 20000 kPa, x2 = 0.0937 | 730.54
313.11 K, 1000 kPa, x2 = 0.2507 | 717.71
313.11 K, 2000 kPa, x2 = 0.2507 | 718.61
313.11 K, 3000 kPa, x2 = 0.2507 | 719.5
313.11 K, 4000 kPa, x2 = 0.2507 | 720.38
313.11 K, 5000 kPa, x2 = 0.2507 | 721.25
313.11 K, 6000 kPa, x2 = 0.2507 | 722.07
313.11 K, 7000 kPa, x2 = 0.2507 | 722.9
313.11 K, 8000 kPa, x2 = 0.2507 | 723.74
313.11 K, 9000 kPa, x2 = 0.2507 | 724.57
313.11 K, 10000 kPa, x2 = 0.2507 | 725.41
313.11 K, 11000 kPa, x2 = 0.2507 | 726.25
313.11 K, 12000 kPa, x2 = 0.2507 | 727.08
313.11 K, 13000 kPa, x2 = 0.2507 | 727.91
313.11 K, 14000 kPa, x2 = 0.2507 | 728.72
313.11 K, 15000 kPa, x2 = 0.2507 | 729.52
313.11 K, 16000 kPa, x2 = 0.2507 | 730.3
313.11 K, 17000 kPa, x2 = 0.2507 | 731.07
313.11 K, 18000 kPa, x2 = 0.2507 | 731.81
313.11 K, 19000 kPa, x2 = 0.2507 | 732.55
313.11 K, 20000 kPa, x2 = 0.2507 | 733.26
322.98 K, 1000 kPa, x2 = 0.4963 | 715.95
322.98 K, 2000 kPa, x2 = 0.4963 | 716.92
322.98 K, 3000 kPa, x2 = 0.4963 | 717.88
322.98 K, 4000 kPa, x2 = 0.4963 | 718.83
322.98 K, 5000 kPa, x2 = 0.4963 | 719.75
322.98 K, 6000 kPa, x2 = 0.4963 | 720.66
322.98 K, 7000 kPa, x2 = 0.4963 | 721.56
322.98 K, 8000 kPa, x2 = 0.4963 | 722.48
322.98 K, 9000 kPa, x2 = 0.4963 | 723.39
322.98 K, 10000 kPa, x2 = 0.4963 | 724.3
322.98 K, 11000 kPa, x2 = 0.4963 | 725.2
322.98 K, 12000 kPa, x2 = 0.4963 | 726.08
322.98 K, 13000 kPa, x2 = 0.4963 | 726.98
322.98 K, 14000 kPa, x2 = 0.4963 | 727.85
322.98 K, 15000 kPa, x2 = 0.4963 | 728.71
322.98 K, 16000 kPa, x2 = 0.4963 | 729.56
322.98 K, 17000 kPa, x2 = 0.4963 | 730.39
322.98 K, 18000 kPa, x2 = 0.4963 | 731.19
322.98 K, 19000 kPa, x2 = 0.4963 | 731.99
322.98 K, 20000 kPa, x2 = 0.4963 | 732.78
322.99 K, 1000 kPa, x2 = 0.0937 | 707.2
322.99 K, 1000 kPa, x2 = 0.9014 | 745.03
322.99 K, 2000 kPa, x2 = 0.0937 | 708.15
322.99 K, 2000 kPa, x2 = 0.9014 | 746.04
322.99 K, 3000 kPa, x2 = 0.0937 | 709.09
322.99 K, 3000 kPa, x2 = 0.9014 | 747.05
322.99 K, 4000 kPa, x2 = 0.0937 | 710.01
322.99 K, 4000 kPa, x2 = 0.9014 | 748.04
322.99 K, 5000 kPa, x2 = 0.0937 | 710.92
322.99 K, 5000 kPa, x2 = 0.9014 | 749.01
322.99 K, 6000 kPa, x2 = 0.0937 | 711.82
322.99 K, 6000 kPa, x2 = 0.9014 | 749.97
322.99 K, 7000 kPa, x2 = 0.0937 | 712.7
322.99 K, 7000 kPa, x2 = 0.9014 | 750.92
322.99 K, 8000 kPa, x2 = 0.0937 | 713.57
322.99 K, 8000 kPa, x2 = 0.9014 | 751.88
322.99 K, 9000 kPa, x2 = 0.0937 | 714.44
322.99 K, 9000 kPa, x2 = 0.9014 | 752.84
322.99 K, 10000 kPa, x2 = 0.0937 | 715.32
322.99 K, 10000 kPa, x2 = 0.9014 | 753.79
322.99 K, 11000 kPa, x2 = 0.0937 | 716.18
322.99 K, 11000 kPa, x2 = 0.9014 | 754.74
322.99 K, 12000 kPa, x2 = 0.0937 | 717.04
322.99 K, 12000 kPa, x2 = 0.9014 | 755.67
322.99 K, 13000 kPa, x2 = 0.0937 | 717.9
322.99 K, 13000 kPa, x2 = 0.9014 | 756.6
322.99 K, 14000 kPa, x2 = 0.0937 | 718.73
322.99 K, 14000 kPa, x2 = 0.9014 | 757.52
322.99 K, 15000 kPa, x2 = 0.0937 | 719.56
322.99 K, 15000 kPa, x2 = 0.9014 | 758.41
322.99 K, 16000 kPa, x2 = 0.0937 | 720.37
322.99 K, 16000 kPa, x2 = 0.9014 | 759.31
322.99 K, 17000 kPa, x2 = 0.0937 | 721.18
322.99 K, 17000 kPa, x2 = 0.9014 | 760.18
322.99 K, 18000 kPa, x2 = 0.0937 | 721.95
322.99 K, 18000 kPa, x2 = 0.9014 | 761.04
322.99 K, 19000 kPa, x2 = 0.0937 | 722.72
322.99 K, 19000 kPa, x2 = 0.9014 | 761.88
322.99 K, 20000 kPa, x2 = 0.0937 | 723.46
322.99 K, 20000 kPa, x2 = 0.9014 | 762.71
